{
  "source": "patent US20250092001A1",
  "about": "“NOVEL EXCITATORY AMINO ACID GLUTAMATE TRANSPORT MODULATORS AND METHODS USING THE SAME” (Drexel University, priority 2022, published 2025)",
  "key": {"[1]": {"tested_on": "R6/2 mice (Huntington disease model)", "test": "Novel object recognition assay", "assay_type": "in vivo, mouse", "settings": "200 mg/kg, versus wild-type treated with vehicle", "description": "Referring to FIG. 9B, to test for memory impairment a novel object recognition assay was performed. A 44×44 cm square shaped open field arena was used to perform this test at week 12 and week 15. The behavioral evaluation was performed in 2 sets, each set having equal number of animals. The animals were subjected to habituation a day prior to the commencement of test for 5 min followed by familiarization with similar objects for 10 min and tested with different objects for 10 min on the following day. The behavior was recorded under dim light and low noise conditions using an overhead camera. Cumulative duration with both the objects, total object exploration (sec), distance travelled (cm) was quantified using the Noldus ethovision XT 14 software."}, "[2]": {"tested_on": "R6/2 mice (Huntington disease model)", "test": "Open field locomotion test", "assay_type": "in vivo, mouse", "settings": "200 mg/kg, versus wild-type treated with vehicle", "protocol": "FIG. 9A depicts the results of a locomotion test. In the locomotion test of FIG. 9A, wildtype and R6/2 mice treated with vehicle or different doses of GTS467 (2, 4, and 10 mg/kg) or ceftriaxone (200 mg/kg) were subjected to the open field test to evaluate their locomotor abilities in a 44×44 cm and 43×43 cm square open field arena. Animals were placed individually in the open field arena and behavior was recorded for a period of 5 minutes under dim light and low noise conditions. Animal behavior was recorded using an overhead camera and the distance moved was recorded and quantified using the Noldus ethovision XT-14 software. FIG. 9B depicts the results of a memory task test. Referring to FIG. 9B, to test for memory impairment a novel object recognition assay was performed. A 44×44 cm square shaped open field arena was used to perform this test at week 12 and week 15. The behavioral evaluation was performed in 2 sets, each set having equal number of animals. […] The behavior was recorded under dim light and low noise conditions using an overhead camera. Cumulative duration with both the objects, total object exploration (sec), distance travelled (cm) was quantified using the Noldus ethovision XT 14 software. […]"}, "[3]": {"tested_on": "Drosophila model of Huntington's Disease (Htt model)", "test": "Larval locomotion assay in Drosophila Huntington's disease model", "assay_type": "in vivo", "settings": "third instar larvae; concentrations as low as two-fold below EC50 and one-fold below EC50", "text": "FIG. 6A illustrate certain aspects of a locomotion assay used to assay the locomotive activities. […] FIGS. 6B and 6C depict the results of the locomotion assay results of wild-type Drosophila (“WT”), as well as Drosophila of a Huntington's disease model treated with vehicle (“Veh”) or with various concentrations of two exemplary GLT-1 modulators. […] The Drosophila Htt model is produced by crossing UAS-Htt([…]) male flies with elav-Gal4 virgin female flies. Both fly strains were purchased from Bloomington Drosophila Stock Center (BDSC, Indiana, USA). […] Locomotion assays were conducted by transferring the third instar larvae of flies to agar plates (FIG. 6A) and counting the number of grid lines crossed in 30 seconds."}, "[4]": {"tested_on": "Drosophila model of Huntington's disease", "test": "Longevity assay", "assay_type": "in vivo", "settings": "Huntington's disease model flies; up to about day 40", "protocol": "The longevity assay was performed according to Romero et al., Neuron, 57(1), 27-40 and Linford et al., JoVE (Journal of Visualized Experiments), (71). Briefly, 100 adult flies from wild type and HTT phenotype (male and female) were collected in each designated tube and fed with food containing the specific concentration of drug. Every 2-3 days the flies were moved into new vials with fresh food and drug. Dead flies were removed and the number of flies alive during each change is noted. The tunes were maintained until the last available fly and the data was plotted as a survival curve. FIG. 8A illustrates certain aspects of a longevity assay. FIG. 8B depicts the results of the longevity assay. […] The survival rates of the flies were recorded over time."}, "[5]": {"tested_on": "Drosophila model of Huntington's disease", "test": "Larval olfactory associative learning test", "assay_type": "in vivo", "settings": "Elav x Htt larvae; 3.53 nM GT467, […] GT511", "protocol": "FIG. 7A illustrates certain aspects of a larval olfactory associative learning used to test learning and memory. In FIG. 7A, larvae were trained with either a reinforcer solution containing sucrose (“LIN/SUC”) or a control of distilled water (“LIN/DW”). The trained larvae were then transferred to a dish having test odorant placed on one side and a control on the opposite side. […] The ΔRI (difference between LIN/SUC and LIN/DW performance scores) were then calculated for the high performers (FIG. 7B), low performers (FIG. 7C) and non-performers (FIG. 7D). […] Referring to FIG. 7A, Drosophila larvae were trained with either a reinforcer solution containing sucrose (“LIN/SUC”) or a control of distilled water (“LIN/DW”). The trained larvae were then transferred to a dish having test odorant placed on one side and a control on the opposite side. The ΔRI were then calculated for the high performers (FIG. 7B), low performers (FIG. 7C) and non-performers (FIG. 7D)."}, "[6]": {"test": "Pharmacokinetics of GT467 and GT511 in rats, plasma and brain (IV, IP, PO)", "assay_type": "in vivo, rat", "settings": "for AUC0-t: 0 to 24 hrs", "protocol": "Pharmacokinetics (PK) study for GT951 was conducted at Melior Discovery Services (Exton, PA). Fifteen male CD-1 mice 23-50 g was used for the study and the mice were housed 3 per cage. PK studies for GT467 and GT511 were conducted at Piramal Pharma solutions under approved protocols (Pune, India). One hundred and sixty-eight male Wistar rats were used for the study and housed 4 per cage. All animals were maintained on a standard 12 h light cycle and given free access to water and standard rodent chow. Food and water were available ad libitum. Animals were not fasted for any portion of the study and animals were acclimated to the animal care facility for seven days prior to the start of the experiment. The holding room and procedure room temperature was 21-23° C. and humidity was at 40-45% during the experiment (within the normal range of the care facility). All procedures were completed according to Institutional Animal Care and Use Committee (IACUC) approved protocols for housing and for PK studies.\nRats were dosed with the drug and blood and brain samples were collected at 0.5, 1, 2, 4, 8 and 24 h time points. Blood was collected via the sub-lingual vein under anesthesia into tubes containing Na2EDTA as an anticoagulant. Plasma fraction was separated by centrifuging the samples at 10,000 rpm for 5 min and the plasma was transferred to a cryo tube and stored at −80 C. Animals were euthanized and the brain was rapidly removed on ice and weighed. Brain was homogenized in Milli Q water and the homogenate was stored at −80 C until further use. Bioanalysis of the samples was performed using the SCIEX QTRAP 5500 LCMS/MS system with Phenomenex synergy C18 column and carbamazepine as internal standard. A methanol extraction procedure was used to precipitate the proteins in the sample. In addition to the internal standards, drug free plasma and brain samples were prepared for calibration and quantification standards. All samples were within the detectable range of the standard curves. 50 μl of the sample was added to 200 μl of the working solution of the internal standard and centrifuged for 5 min at 10,000 rpm. 60 μl of the supernatant was added to 140 μl of water and mixed well prior to transferring them for quantitative analysis on LCMS.\nSpecifically, rats were administered with GT467 or GT511 intraperitoneally (IP), intravenously (IV) or orally (PO). The concentration of the administered compounds measured at various timepoints in the plasma are depicted in FIGS. 4A and 4B, the concentrations of the administered compounds measured at various timepoints in the brain are depicted in FIGS. 5A and 5B.\nFurthermore, pharmacokinetic parameters such as the peak concentration (Cmax), the time to reach the peak concentration (Tmax), the area under curve from time 0 to T (i.e., 24 hrs) (AUC0-t), the area under curve from time 0 to infinite (AUC0-∞), the half-life (t1/2), the oral clearance (CL/F), the volume of distribution of drug observed (Vz_F_obs), and the percentage of bioavailability (% Bioavailability) were also measured or calculated."}, "[7]": {"settings": "male, Wistar, rat plasma, IP 10 mg/kg"}, "[8]": {"settings": "male, Wistar, rat plasma, IV 5 mg/kg"}, "[9]": {"settings": "male, Wistar, rat plasma, PO 10 mg/kg"}},
  "note": "Read-outs that look alike come from different tables or passages of the source.",
  "data": [
    {"compound": "CO/N=C(\\C(=O)N[C@@H]1C(=O)N2C(C(=O)O)=C(CSc3nc(=O)c(=O)[nH]n3C)CS[C@H]12)c1csc(N)n1", "note": "[ceftriaxone, (6R,7R)-7-{[(2Z)-2-(2-amino-1,3-thiazol-4-yl)->2-(methoxyimino)acetyl]amino}-3-{[(2-methyl-5,6-dioxo-1,2,5,6-tetrahydro-1,2,4-triazin-3-yl)thio]methyl}-8-oxo-5-thia-1-azabicyclo[4.2.0]oct-2-ene-2-carboxylic acid, reference compound]", "values": [
      {"measurement": "Recognition index", "setting": "[1]", "value": "scored significantly lower in recognition index"},
      {"measurement": "Distance moved", "setting": "[2]", "value": "move significantly shorter distances"}
    ]},
    {"compound": "COc1ccc(NC(=O)C(=O)N2CCN(c3ccccc3)CC2)cc1", "note": "[GT511, N-(4-methoxyphenyl)-2-oxo-2-(4-phenylpiperazin-1-yl)acetamide]", "values": [
      {"measurement": "Locomotor ability (grid lines crossed in 30 seconds)", "setting": "[3]", "value": "restores the Huntington's disease model flies' locomotor ability"},
      {"measurement": "Survival rate", "setting": "[4]", "value": "significantly improved the survival rate"},
      {"measurement": "Olfactory learning performance (ΔRI)", "setting": "[5]", "value": "improved significantly"},
      {"measurement": "AUC(0-inf)", "setting": "[6]; [7]", "value": 1.13, "unit": "µg·h/mL"},
      {"measurement": "Cmax", "setting": "[6]; [7]", "value": 0.45, "unit": "µg/mL"},
      {"measurement": "AUC0-t", "setting": "[6]; male, Wistar, rat plasma, IP 10 mg/kg, read-out: AUC0-t", "value": 1.07, "unit": "µg·h/mL"},
      {"measurement": "CL/F", "setting": "[6]; male, Wistar, rat plasma, IP 10 mg/kg, read-out: CL/F (converted)", "value": 8.92, "unit": "L/h/kg"},
      {"measurement": "AUC(0-inf)", "setting": "[6]; [8]", "value": 0.995, "unit": "µg·h/mL"},
      {"measurement": "Cmax", "setting": "[6]; [8]", "value": 0.567, "unit": "µg/mL"},
      {"measurement": "AUC0-t", "setting": "[6]; male, Wistar, rat plasma, IV 5 mg/kg, read-out: AUC0-t", "value": 0.919, "unit": "µg·h/mL"},
      {"measurement": "AUC(0-inf)", "setting": "[6]; [9]", "value": 0.399, "unit": "µg·h/mL"},
      {"measurement": "Cmax", "setting": "[6]; [9]", "value": 0.0429, "unit": "µg/mL"},
      {"measurement": "AUC0-t", "setting": "[6]; male, Wistar, rat plasma, PO 10 mg/kg, read-out: AUC0-t", "value": 0.322, "unit": "µg·h/mL"},
      {"measurement": "CL/F", "setting": "[6]; male, Wistar, rat plasma, PO 10 mg/kg, read-out: CL/F (converted)", "value": 30.3, "unit": "L/h/kg"},
      {"measurement": "AUC0-∞", "setting": "[6]; rat brain, IP 10 mg/kg", "value": 467.11, "unit": "ng·h/g"},
      {"measurement": "Tmax", "setting": "[6]; rat brain, IP 10 mg/kg", "value": 0.50, "unit": "h"},
      {"measurement": "t1/2", "setting": "[6]; rat brain, IP 10 mg/kg", "value": 2.26, "unit": "h"},
      {"measurement": "AUC0-t", "setting": "[6]; rat brain, IP 10 mg/kg", "value": 429.85, "unit": "ng·h/g"},
      {"measurement": "AUC0-∞", "setting": "[6]; rat brain, IV 5 mg/kg", "value": 483.13, "unit": "ng·h/g"},
      {"measurement": "Tmax", "setting": "[6]; rat brain, IV 5 mg/kg", "value": 0.50, "unit": "h"},
      {"measurement": "t1/2", "setting": "[6]; rat brain, IV 5 mg/kg", "value": 1.52, "unit": "h"},
      {"measurement": "AUC0-t", "setting": "[6]; rat brain, IV 5 mg/kg", "value": 443.23, "unit": "ng·h/g"},
      {"measurement": "Tmax", "setting": "[6]; rat brain, PO 10 mg/kg", "value": 1.38, "unit": "h"},
      {"measurement": "AUC0-t", "setting": "[6]; rat brain, PO 10 mg/kg", "value": 183.00, "unit": "ng·h/g"},
      {"measurement": "% Bioavailability", "setting": "[6]; rat plasma, IP 10 mg/kg", "value": 58.36, "unit": "%"},
      {"measurement": "Tmax", "setting": "[6]; rat plasma, IP 10 mg/kg", "value": 0.63, "unit": "h"},
      {"measurement": "Vz_F_obs", "setting": "[6]; rat plasma, IP 10 mg/kg", "value": 79.2212, "unit": "L/kg"},
      {"measurement": "t1/2", "setting": "[6]; rat plasma, IP 10 mg/kg", "value": 6.22, "unit": "h"},
      {"measurement": "CL/F", "setting": "[6]; rat plasma, IV 5 mg/kg", "value": 5.17858, "unit": "L/h/kg"},
      {"measurement": "Tmax", "setting": "[6]; rat plasma, IV 5 mg/kg", "value": 0.50, "unit": "h"},
      {"measurement": "Vz_F_obs", "setting": "[6]; rat plasma, IV 5 mg/kg", "value": 41.46389, "unit": "L/kg"},
      {"measurement": "t1/2", "setting": "[6]; rat plasma, IV 5 mg/kg", "value": 6.08, "unit": "h"},
      {"measurement": "% Bioavailability", "setting": "[6]; rat plasma, PO 10 mg/kg", "value": 17.51, "unit": "%"},
      {"measurement": "Tmax", "setting": "[6]; rat plasma, PO 10 mg/kg", "value": 3.25, "unit": "h"},
      {"measurement": "Vz_F_obs", "setting": "[6]; rat plasma, PO 10 mg/kg", "value": 198.88289, "unit": "L/kg"},
      {"measurement": "t1/2", "setting": "[6]; rat plasma, PO 10 mg/kg", "value": 5.34, "unit": "h"},
      {"measurement": "Plasma concentration and brain concentration by route of administration", "setting": "[6]; rats, IP, IV, PO", "value": "higher plasma concentration and brain concentration than oral administration"}
    ]}
  ]
}
